According to ChEMBL document CHEMBL3352521, “Two Potent OXE-R Antagonists: Assignment of Stereochemistry” (ACS Med Chem Lett, 2014):

Biological target: Oxoeicosanoid receptor 1 (Homo sapiens, UniProt Q8TDS5)
Test: Antagonist activity at OXE receptor in human neutrophils assessed as inhibition of calcium mobilization by fluorescence assay
Format: functional

Oxoeicosanoid receptor 1, sequence (Q8TDS5 whole entry): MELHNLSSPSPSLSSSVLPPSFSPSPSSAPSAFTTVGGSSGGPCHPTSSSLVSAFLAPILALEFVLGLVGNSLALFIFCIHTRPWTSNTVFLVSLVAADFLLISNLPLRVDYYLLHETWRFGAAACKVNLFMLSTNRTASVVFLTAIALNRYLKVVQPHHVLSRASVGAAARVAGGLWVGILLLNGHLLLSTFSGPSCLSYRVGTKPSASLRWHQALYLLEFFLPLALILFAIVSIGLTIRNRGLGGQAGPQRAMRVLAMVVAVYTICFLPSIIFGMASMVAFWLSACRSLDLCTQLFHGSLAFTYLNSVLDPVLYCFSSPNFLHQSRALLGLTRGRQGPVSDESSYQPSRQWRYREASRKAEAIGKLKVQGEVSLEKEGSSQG

CCCCCCc1c(C(=O)C[C@H](C)CC(=O)O)c2cc(Cl)ccc2n1C
IC50: 6 nM

CCCCCCc1c(C(=O)C[C@@H](C)CC(=O)O)c2cc(Cl)ccc2n1C
IC50: 2.7 nM
